Laboratory results reported in publication PMC3603449, “The affinity purification and characterization of ATP synthase complexes from mitochondria” (Open Biology, 2013).

Molecular target: T1, bovine F1Fo-ATPase (F-ATP synthase), F1 catalytic site (Bos taurus, UniProt P00829+P19483)
T1 construct: gene ATP5F1B; native purification from heart mitochondria; with ATP synthase F(1) complex subunit gamma, mitochondrial; ATP synthase F(1) complex subunit delta, mitochondrial; ATP synthase F(1) complex subunit epsilon, mitochondrial; ATP synthase F(0) complex subunit C1, mitochondrial (subunit c); ATP synthase F(0) complex subunit a; ATP synthase subunit O, mitochondrial (OSCP); ATP synthase F(0) complex subunit B1, mitochondrial (subunit b); ATP synthase subunit d, mitochondrial; ATP synthase-coupling factor 6, mitochondrial (F6); ATP synthase protein 8 (A6L); ATP synthase subunit e, mitochondrial; ATP synthase subunit f, mitochondrial; ATP synthase subunit g, mitochondrial
Experiment: ATP synthesis in proteoliposomes with bacteriorhodopsin, luciferin-luciferase
Format: biochemical
Conditions: turnover only; phosphate, pH 7.4, white light, I1-60GFP present

Nc1ncnc2c1ncn2[C@@H]1O[C@H](COP(=O)(O)OP(=O)(O)O)[C@@H](O)[C@H]1O [ADP]
ATP synthesis in proteoliposomes with bacteriorhodopsin, luciferin-luciferase: On illumination with white light, ATP was synthesized in a linear manner
